Assay results as given in patent US20100331305A1, “OXO-HETEROCYCLE FUSED PYRIMIDINE COMPOUNDS, COMPOSITIONS AND METHODS OF USE” (Genentech, Inc., priority 2009, published 2010).
Several values for one entry are separate records, joined by “and”; a condition that tells them apart may be missing. Equal entries are not always repeated.

Legend:
[1] = target: mTOR enzyme (mTOR(1360-2549)+GBL) (Homo sapiens, UniProt P42345); assay: In vitro mTOR kinase assay (TR-FRET); assay type: biochemical; conditions: 0.25 nM mTOR+GBL, 8 uM ATP; values tied to compounds by order of Table 1; 'x or y' = two alternative values for separated diastereomers of unassigned stereochemistry; read-out: activity level (Ki) in the mTOR kinase assay
Chain of mTOR enzyme (mTOR(1360-2549)+GBL) (P42345 1360-2549, species assumed): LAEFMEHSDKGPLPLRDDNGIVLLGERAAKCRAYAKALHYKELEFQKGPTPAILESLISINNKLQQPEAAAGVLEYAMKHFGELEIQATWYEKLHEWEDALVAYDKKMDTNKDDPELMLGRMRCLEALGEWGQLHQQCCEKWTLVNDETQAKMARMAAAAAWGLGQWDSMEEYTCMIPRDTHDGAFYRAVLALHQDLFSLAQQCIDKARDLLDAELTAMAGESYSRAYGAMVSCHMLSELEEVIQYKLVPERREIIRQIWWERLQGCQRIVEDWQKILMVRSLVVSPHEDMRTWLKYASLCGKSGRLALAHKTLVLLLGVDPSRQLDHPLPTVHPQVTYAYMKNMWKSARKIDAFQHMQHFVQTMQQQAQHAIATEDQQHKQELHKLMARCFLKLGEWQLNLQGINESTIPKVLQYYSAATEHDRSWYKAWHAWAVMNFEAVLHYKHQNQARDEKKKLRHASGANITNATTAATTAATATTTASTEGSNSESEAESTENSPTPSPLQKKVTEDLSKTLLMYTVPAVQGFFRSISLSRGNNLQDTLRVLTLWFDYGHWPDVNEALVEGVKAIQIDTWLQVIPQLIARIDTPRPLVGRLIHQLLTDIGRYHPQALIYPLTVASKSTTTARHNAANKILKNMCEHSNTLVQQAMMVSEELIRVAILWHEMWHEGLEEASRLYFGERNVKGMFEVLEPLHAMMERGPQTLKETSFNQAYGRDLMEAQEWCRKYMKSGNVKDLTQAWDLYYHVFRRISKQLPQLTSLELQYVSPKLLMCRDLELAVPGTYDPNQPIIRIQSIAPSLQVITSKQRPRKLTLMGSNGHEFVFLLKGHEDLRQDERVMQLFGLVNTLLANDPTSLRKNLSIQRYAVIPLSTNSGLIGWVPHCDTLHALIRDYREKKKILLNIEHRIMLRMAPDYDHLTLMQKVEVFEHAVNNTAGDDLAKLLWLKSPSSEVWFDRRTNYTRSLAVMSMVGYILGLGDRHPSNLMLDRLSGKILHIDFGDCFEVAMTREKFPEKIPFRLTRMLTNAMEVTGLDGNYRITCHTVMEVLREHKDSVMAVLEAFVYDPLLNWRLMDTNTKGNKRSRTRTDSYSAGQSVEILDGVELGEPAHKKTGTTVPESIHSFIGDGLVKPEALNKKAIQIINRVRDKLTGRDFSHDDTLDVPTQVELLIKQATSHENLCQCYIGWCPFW
Chain of mTOR enzyme (mTOR(1360-2549)+GBL) (Q9BVC4 whole entry partner, species assumed): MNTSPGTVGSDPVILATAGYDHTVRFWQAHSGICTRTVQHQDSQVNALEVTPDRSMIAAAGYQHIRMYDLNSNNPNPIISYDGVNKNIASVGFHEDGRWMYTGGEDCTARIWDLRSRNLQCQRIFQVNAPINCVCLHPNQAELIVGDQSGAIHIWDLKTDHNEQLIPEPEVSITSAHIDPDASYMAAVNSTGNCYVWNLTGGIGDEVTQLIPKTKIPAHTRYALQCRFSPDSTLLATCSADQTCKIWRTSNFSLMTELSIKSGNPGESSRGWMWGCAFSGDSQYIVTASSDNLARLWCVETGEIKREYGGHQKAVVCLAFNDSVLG
Summary of the method: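 Compounds were tested in 10-point dose curves from 10 uM top final concentration. The reaction was stopped with 2 nM Tb-anti-p4E-BP1 (T37/T46) antibody plus 10 mM EDTA for 30 minutes, and phospho-4E-BP1 was detected by TR-FRET. Ki apparent was fitted with the Morrison ATP-competitive tight-binding equation.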

PC3 cells = assay: In vitro cell proliferation assay; assay type: cell-based, human; conditions: Homo sapiens, PC-3, with PC3 cells; values tied to compounds by order of Table 1
Summary of the method: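 PC3 (or MDAMB361.1) cells, ~10^3/well, settled overnight, then exposed to compound for 3 days; viability read by CellTiter-Glo luminescence (RLU). Alternatively, 4-day compound exposure followed by Alamar Blue for 6 h, fluorescence 544/590 nm; EC50 from sigmoidal dose-response fit.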

Compound	Ki [1]	EC50 (PC3 cells)
C[C@H]1COCCN1c1nc(-c2ccc(Nc3cccc(=O)[nH]3)cc2)nc2c1COCC2 [Example 29, (S)-6-(4-(4-(3-methylmorpholino)-7,8-dihydro-5H-pyrano[4,3-d]pyrimidin-2-yl)phenylamino)pyridin-2(1H)-one]	5 nM	341 nM
O=c1ccnc(Nc2ccc(-c3nc4c(c(N5CCOCC5)n3)CCC3(CC3)O4)cc2)[nH]1 [Example 42, 2-(4-(4′-morpholino-5′,6′-dihydrospiro[cyclopropane-1,7′-pyrano[2,3-d]pyrimidine]-2′-yl)phenylamino)pyrimidin-4(3H)-one]	1 nM	56 nM
CC1(C)OCc2c(N3CCOCC3)nc(-c3ccc(N)nc3)nc21 [Example 102, 5-(7,7-dimethyl-4-morpholino-5,7-dihydrofuro[3,4-d]pyrimidin-2-yl)pyridin-2-amine]	17 nM	159 nM
CCNC(=O)Nc1ccc(-c2nc(N3CCOC[C@@H]3C)c3c(n2)[C@@](C)(CCn2ccnc2C)OC3)cc1 [Example 81 et (R), 1-ethyl-3-(4-((R)-7-methyl-7-(2-(2-methyl-1H-imidazol-1-yl)ethyl)-4-((S)-3-methylmorpholino)-5,7-dihydrofuro[3,4-d]pyrimidin-2-yl)phenyl)urea]	67 nM	274 nM
COCC[C@]1(C)OCc2c(N3CCOC[C@@H]3C)nc(-c3ccc4nc(N)[nH]c4c3)nc21 [Example 124 hv^1]	24 nM and 81 nM	577 nM
C[C@H]1COCCN1c1nc(-c2ccc(NC(=O)NC3COC3)cc2)nc2c1COCC2 [Example 25, (S)-1-(4-(4-(3-methylmorpholino)-7,8-dihydro-5H-pyrano[4,3-d]pyrimidin-2-yl)phenyl)-3-(oxetan-3-yl)urea]	13 nM	1500 nM
CC[C@H]1COCCN1c1nc(-c2cnc(N)nc2)nc2c1CCCO2 [Example 128, (S)-5-(4-(3-ethylmorpholino)-6,7-dihydro-5H-pyrano[2,3-d]pyrimidin-2-yl)pyrimidin-2-amine]	103 nM	1200 nM
C[C@H]1COCCN1c1nc(-c2cnc(N)nc2)nc2c1COC2(C)C [Example 103, (S)-5-(7,7-dimethyl-4-(3-methylmorpholino)-5,7-dihydrofuro[3,4-d]pyrimidin-2-yl)pyrimidin-2-amine]	15 nM	41 nM
CCNC(=O)Nc1ccc(-c2nc3c(c(N4CCOCC4)n2)COC(c2ccccn2)C3)cc1 (centres unmarked) [1-ethyl-3-(4-(4-morpholino-7-(pyridin-2-yl)-7,8-dihydro-5H-pyrano[4,3-d]pyrimidin-2-yl)phenyl)urea]	27 nM	914 nM
CCNC(=O)Nc1ccc(-c2nc3c(c(N4CCOC[C@@H]4CC)n2)CCCO3)cc1 [Example 2, (S)-1-ethyl-3-(4-(4-(3-ethylmorpholino)-6,7-dihydro-5H-pyrano[2,3-d]pyrimidin-2-yl)phenyl)urea]	1 nM	144 nM
C[C@H]1COCCN1c1nc(-c2ccc(NC(=O)Nc3ccn(C)n3)cc2)nc2c1CCCO2 [Example 30, (S)-1-(1-methyl-1H-pyrazol-3-yl)-3-(4-(4-(3-methylmorpholino)-6,7-dihydro-5H-pyrano[2,3-d]pyrimidin-2-yl)phenyl)urea]	1 nM	172 nM
C[C@H]1COCCN1c1nc(-c2ccc(Nc3nccc(=O)[nH]3)cc2)nc2c1COC(CO)C2 (stereo partly drawn) [2-(4-(7-(hydroxymethyl)-4-((S)-3-methylmorpholino)-7,8-dihydro-5H-pyrano[4,3-d]pyrimidin-2-yl)phenylamino)pyrimidin-4(3H)-one]	4 nM	2800 nM
C[C@H]1COCCN1c1nc(-c2ccc(NC(=O)Nc3cnn(C)c3)cc2)nc2c1CCCO2 [Example 31, (S)-1-(1-methyl-1H-pyrazol-4-yl)-3-(4-(4-(3-methylmorpholino)-6,7-dihydro-5H-pyrano[2,3-d]pyrimidin-2-yl)phenyl)urea]	2 nM	57 nM
